We go through 9 molecules from US20230087342A1, “AZEPANE DERIVATIVE” (Nippon Chemiphar Co., Ltd., priority 2019, published 2023).

The target of this experiment is T1, human κ opioid receptors (Homo sapiens, UniProt P41145).
T1 construct: host or cells: CHO cells
As to the kind of experiment: Opioid receptor function test (Lance Ultra cAMP kit, agonist activity). The experiment is classed as cell-based. The following applies: CHO cells expressing human κ opioid receptors, 10 μM forskolin, 30 minutes. As for the experimental part:
Opioid Receptor Function Test
The function activity of the compound of the present invention on κ opioid receptors was examined.
Method: Using a Lance Ultra cAMP kit (Perkin Elmer), the examination was performed according to a predetermined method. In evaluation of agonist activity, CHO cells expressing human κ opioid receptors (Catalog No. CT6606, accession No. NM_000912) and a test compound were reacted in an assay buffer (1×HSS, 5 mM HEPES, pH 7.4, 0.5 mM IBMX (isobutylmethyixanthine), 0.1% SA) in the presence of 10 μM forskolin for 30 minutes. Subsequently, a cAMP detection reagent in the kit was added. One hour later, time-resolved fluorescence measurement was performed using an EnVision plate reader (Perkin Elmer). The evaluation of the test compound was performed in a concentration range of 10^−14 to 10^−7 M for the κ opioid receptor function test.

T1 sequence (P41145 whole entry): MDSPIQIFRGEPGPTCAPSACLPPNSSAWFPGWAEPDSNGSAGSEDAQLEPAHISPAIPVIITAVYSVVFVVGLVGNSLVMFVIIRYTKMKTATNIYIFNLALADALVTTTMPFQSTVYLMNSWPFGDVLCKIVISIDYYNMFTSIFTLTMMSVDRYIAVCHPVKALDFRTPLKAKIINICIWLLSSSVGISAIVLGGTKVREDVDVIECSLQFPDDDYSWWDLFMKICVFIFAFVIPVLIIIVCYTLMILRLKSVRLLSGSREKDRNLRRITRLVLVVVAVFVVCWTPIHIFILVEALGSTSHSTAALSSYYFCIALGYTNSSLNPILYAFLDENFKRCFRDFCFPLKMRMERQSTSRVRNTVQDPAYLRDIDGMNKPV

As to `Cc1ccnc(CCN2CC[C@]34CCN(CC5CC5)[C@H](Cc5ccc(O)cc53)[C@]4(O)CC2)c1` [Example 105, (5aS,6R,11bS)-14-(cyclopropylmethyl)-3-(2-(4-methylpyridin-2-yl)ethyl)-2,3,4,5,6,7-hexahydro-6,11b-(epiminoethano)naphtho[1,2-d]azepine-5a,10(1H)-diol], the midpoint of the response, the EC50, lay at 0.088 nM. The molecule `Cc1cc(CCN2CC[C@]34CCN(CC5CC5)[C@H](Cc5ccc(O)cc53)[C@]4(O)CC2)no1` [Example 188, (5aS,6R,11bS)-14-(cyclopropylmethyl)-3-(2-(5-methylisoxazol-3-yl)ethyl)-2,3,4,5,6,7-hexahydro-6,11b-(epiminoethano)naphtho[1,2-d]azepine-5a,10(1H)-diol] returned an EC50 of 0.69 nM.

For the molecule `Cc1cccnc1CCN1CC[C@]23CCN(CC4CC4)[C@H](Cc4ccc(O)cc42)[C@]3(O)CC1` [Example 102, (5aS,6R,11bS)-14-(cyclopropylmethyl)-3-(2-(3-methylpyridin-2-yl)ethyl)-2,3,4,5,6,7-hexahydro-6,11b-(epiminoethano)naphtho[1,2-d]azepine-5a,10(1H)-diol], the EC50 was found to be 0.13 nM. With “(5aS,6R,11bS)-14-(cyclopropylmethyl)-3-((1R,3R)-3-(4-methyl-1H-pyrazol-1-yl)cyclopentyl)-2,3,4,5,6,7-hexahydro-6,11b-(epiminoethano)naphtho[1,2-d]azepine-5a,10(1H)-diol and (5aS,6R,11bS)-14-(cyclopropylmethyl)-3-((1S,3S)-3-(4-methyl-1H-pyrazol-1-yl)cyclopentyl)-2,3,4,5,6,7-hexahydro-6,11b-(epiminoethano)naphtho[1,2-d]azepine-5a,10(1H)-diol [Example 237]”, a half-maximal response (EC50) required 0.29 nM. On to `Cc1cc(C)n(CCN2CC[C@]34CCN(CC5CC5)[C@H](Cc5ccc(O)cc53)[C@]4(O)CC2)n1` [Example 56, (5aS,6R,11bS)-14-(cyclopropylmethyl)-3-(2-(3,5-dimethyl-1H-pyrazol-1-yl)ethyl)-2,3,4,5,6,7-hexahydro-6,11b-(epiminoethano)naphtho[1,2-d]azepine-5a,10(1H)-diol], for which it took 0.97 nM to reach a half-maximal effect (EC50). Turning to `O=C(Cn1nccc1O)N1CC[C@]23CCN(CC4CC4)[C@H](Cc4ccc(O)cc42)[C@]3(O)CC1` [Example 214, 1-((5aS,6R,11bR)-14-(cyclopropylmethyl)-5a,10-dihydroxy-1,2,5,5a,6,7-hexahydro-6,11b-(epiminoethano)naphtho[1,2-d]azepin-3(4H)-yl)-2-(5-hydroxy-1H-pyrazol-1-yl)ethan-1-one], the EC50 stood at 0.13 nM. In the case of `Cc1cc2c(cc1O)[C@@]13CCN(C(=O)Cc4cc(C(F)(F)F)ccn4)CC[C@@]1(O)[C@@H](C2)N(CC1CC1)CC3` [Example 355, 1-((5aS,6R,11bR)-14-(cyclopropylmethyl)-5a,10-dihydroxy-9-methyl-1,2,5,5a,6,7-hexahydro-6,11b-(epiminoethano)naphtho[1,2-d]azepin-3(4H)-yl)-2-(4-(trifluoromethyl)pyridin-2-yl)ethan-1-one], it took 0.11 nM to reach a half-maximal effect (EC50). `Oc1ccc2c(c1)[C@@]13CCN(CCN4CCCCC4)CC[C@@]1(O)[C@@H](C2)N(CC1CC1)CC3` [Example 130, (5aS,6R,11bS)-14-(cyclopropylmethyl)-3-(2-(piperidin-1-yl)ethyl)-2,3,4,5,6,7-hexahydro-6,11b-(epiminoethano)naphtho[1,2-d]azepine-5a,10(1H)-diol] gave an EC50 of 0.36 nM. `O=C(Cc1cn2ccccc2n1)N1CC[C@]23CCN(CC4CC4)[C@H](Cc4ccc(O)cc42)[C@]3(O)CC1` [Example 115, 1-((5aS,6R,11bR)-14-(cyclopropylmethyl)-5a,10-dihydroxy-1,2,5,5a,6,7-hexahydro-6,11b-(epiminoethano)naphtho[1,2-d]azepin-3(4H)-yl)-2-(imidazo[1,2-a]pyridin-2-yl)ethan-1-one] gave an EC50 of 0.15 nM.

What is called EC50 is the concentration needed to bring the measured effect to its halfway point.
